Measured values as given in patent US8399681B2, “Substituted aminothiazolone indazoles as estrogen related receptor-alpha modulators” (Janssen Pharmaceutica NV, priority 2009, dated 2013).

Each compound was assayed against T1, ERR1 (also known as ERR-α or ERR-1) (Homo sapiens, UniProt P11474) (assay: TR-FRET assay (disruption of co-activator peptide binding)). Conditions: 6His-tagged ERR1 LBD, GST-hSRC2 co-activator polypeptide; average of 3 independent experiments.
T1 sequence (P11474 193-421 limits assumed): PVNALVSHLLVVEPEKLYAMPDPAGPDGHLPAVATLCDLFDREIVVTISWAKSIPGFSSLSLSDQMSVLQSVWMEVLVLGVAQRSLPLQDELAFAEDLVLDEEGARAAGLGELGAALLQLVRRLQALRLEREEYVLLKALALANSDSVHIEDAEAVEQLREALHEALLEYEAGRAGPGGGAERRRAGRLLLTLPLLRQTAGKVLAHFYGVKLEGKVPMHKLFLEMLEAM
Type: biochemical
In short: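 His6-ERR1 LBD (6 nM) with GST-SRC-2 peptide (6 nM), anti-GST Eu cryptate (30 nM) and anti-His XL665 (7.5 nM) in Tris pH 8/KCl/DTT/BSA buffer, equilibrated 4-18 h at 25 °C. Ex 340, em 615/665 nm; hyperbolic dose-response fit, mean of 3 experiments.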
An EC50 of 0.011 µM was found for `COCCN1CCN(C2=NC(=O)/C(=C/c3ccc4c(cnn4Cc4ccc(Cl)cc4C(F)(F)F)c3)S2)[C@H](C)C1` [Example 199, 5-({1-[4-Chloro-2-(trifluoromethyl)benzyl]-1H-indazol-5-yl}methylidene)-2-[4-(2-methoxyethyl)-2-(R)-methylpiperazin-1-yl]-1,3-thiazol-4(5H)-one] in this work.
An EC50 of 0.013 µM was found for `O=C1N=C(N2CCN[C@H](CO)C2)S/C1=C\c1ccc2c(cnn2Cc2ccc(C(F)(F)F)cc2C(F)(F)F)c1` [Example 200, 5-({1-[2,4-Bis(trifluoromethyl)benzyl]-1H-indazol-5-yl}methylidene)-2-[3-(S)-(hydroxymethyl)piperazin-1-yl]-1,3-thiazol-4(5H)-one] in this work.
An EC50 of 0.047 µM was found for `NCC1CN(C2=NC(=O)/C(=C/c3ccc4c(cnn4Cc4ccc(C(F)(F)F)cc4C(F)(F)F)c3)S2)CCO1` (stereo not shown) [Example 201, 2-[2-(Aminomethyl)morpholin-4-yl]-5-({1-[2,4-bis(trifluoromethyl)benzyl]-1H-indazol-5-yl}methylidene)-1,3-thiazol-4(5H)-one] in this work.
An EC50 of 0.0597 µM was found for `C[C@@H]1CN(C2CN(C3=NC(=O)/C(=C/c4ccc5c(cnn5Cc5ccc(C(F)(F)F)cc5C(F)(F)F)c4)S3)C2)C[C@H](C)O1` [Example 202, 5-({1-[2,4-Bis(trifluoromethyl)benzyl]-1H-indazol-5-yl}methylidene)-2-[3-(2,6-cis-dimethylmorpholin-4-yl)azetidin-1-yl]-1,3-thiazol-4(5H)-one] in this work.
An EC50 of 0.0388 µM was found for `C[C@@H]1CN(C2CN(C3=NC(=O)/C(=C/c4ccc5c(cnn5Cc5ccc(Cl)cc5C(F)(F)F)c4)S3)C2)C[C@H](C)O1` [Example 203, 5-({1-[4-Chloro-2-(trifluoromethyl)benzyl]-1H-indazol-5-yl}methylidene)-2-[3-(2,6-cis-dimethylmorpholin-4-yl)azetidin-1-yl]-1,3-thiazol-4(5H)-one] in this work.
An EC50 of 0.042 µM was found for `O=C1N=C(N2CC(N3CCOCC3)C2)S/C1=C\c1ccc2c(cnn2Cc2ccc(C(F)(F)F)cc2C(F)(F)F)c1` [Example 204, 5-({1-[2,4-Bis(trifluoromethyl)benzyl]-1H-indazol-5-yl}methylidene)-2-(3-morpholin-4-ylazetidin-1-yl)-1,3-thiazol-4(5H)-one] in this work.
An EC50 of 0.03 µM was found for `O=C1N=C(N2CC(N3CCOCC3)C2)S/C1=C\c1ccc2c(cnn2Cc2ccc(Cl)cc2C(F)(F)F)c1` [Example 205, 5-({1-[4-Chloro-2-(trifluoromethyl)benzyl]-1H-indazol-5-yl}methylidene)-2-(3-morpholin-4-ylazetidin-1-yl)-1,3-thiazol-4(5H)-one] in this work.
An EC50 of 0.028 µM was found for `O=C1N=C(N2CCN[C@H](CO)C2)S/C1=C\c1ccc2c(cnn2Cc2ccc(Cl)cc2C(F)(F)F)c1` [Example 206, 5-({1-[4-Chloro-2-(trifluoromethyl)benzyl]-1H-indazol-5-yl}methylidene)-2-[3-(S)-(hydroxymethyl)piperazin-1-yl]-1,3-thiazol-4(5H)-one] in this work.
An EC50 of 0.038 µM was found for `CC(C)(C)N1CCN(C2=NC(=O)/C(=C/c3ccc4c(cnn4Cc4ccc(C(F)(F)F)cc4C(F)(F)F)c3)S2)C[C@@H]1CO` [Example 207, 5-({1-[2,4-Bis(trifluoromethyl)benzyl]-1H-indazol-5-yl}methylidene)-2-[4-tert-butyl-3-(R)-(hydroxymethyl)piperazin-1-yl]-1,3-thiazol-4(5H)-one] in this work.
An EC50 of 0.006 µM was found for `COC[C@H]1CN(C2=NC(=O)/C(=C/c3ccc4c(cnn4Cc4ccc(Cl)cc4C(F)(F)F)c3)S2)CCN1` [Example 208, 5-({1-[4-Chloro-2-(trifluoromethyl)benzyl]-1H-indazol-5-yl}methylidene)-2-[3-(R)-(methoxymethyl)piperazin-1-yl]-1,3-thiazol-4(5H)-one] in this work.
An EC50 of 0.006 µM was found for `COC[C@@H]1CN(C2=NC(=O)/C(=C/c3ccc4c(cnn4Cc4ccc(Cl)cc4C(F)(F)F)c3)S2)CCN1` [Example 209, 5-({1-[4-Chloro-2-(trifluoromethyl)benzyl]-1H-indazol-5-yl}methylidene)-2-[3-(S)-(methoxymethyl)piperazin-1-yl]-1,3-thiazol-4(5H)-one] in this work.
An EC50 of 0.0248 µM was found for `COC[C@H]1CN(C2=NC(=O)/C(=C/c3ccc4c(cnn4Cc4ccc(C(F)(F)F)cc4C(F)(F)F)c3)S2)CCN1` [Example 210, 5-({1-[2,4-Bis(trifluoromethyl)benzyl]-1H-indazol-5-yl}methylidene)-2-[3-(R)-(methoxymethyl)piperazin-1-yl]-1,3-thiazol-4(5H)-one] in this work.
An EC50 of 0.031 µM was found for `COC[C@@H]1CN(C2=NC(=O)/C(=C/c3ccc4c(cnn4Cc4ccc(C(F)(F)F)cc4C(F)(F)F)c3)S2)CCN1` [Example 211, 5-({1-[2,4-Bis(trifluoromethyl)benzyl]-1H-indazol-5-yl}methylidene)-2-[3-(S)-(methoxymethyl)piperazin-1-yl]-1,3-thiazol-4(5H)-one] in this work.
An EC50 of 0.02 µM was found for `O=C1N=C(N2CCO[C@H](CO)C2)S/C1=C\c1ccc2c(cnn2Cc2ccc(Cl)cc2C(F)(F)F)c1` [Example 212, 5-({1-[4-Chloro-2-(trifluoromethyl)benzyl]-1H-indazol-5-yl}methylidene)-2-[2-(S)-(hydroxymethyl)morpholin-4-yl]-1,3-thiazol-4(5H)-one] in this work.
An EC50 of 0.008 µM was found for `O=C1N[C@@H]2C[C@H](CO1)N(C1=NC(=O)/C(=C/c3ccc4c(cnn4Cc4ccc(C(F)(F)F)cc4C(F)(F)F)c3)S1)C2` [Example 214, (1R,6R)-7-[5-({1-[2,4-Bis(trifluoromethyl)benzyl]-1H-indazol-5-yl}methylidene)-4-oxo-4,5-dihydro-1,3-thiazol-2-yl]-4-oxa-2,7-diazabicyclo[4.2.1]nonan-3-one] in this work.
An EC50 of 0.048 µM was found for `O=C1N=C(N2CCN(C(=O)C3CC3)[C@@H](CO)C2)S/C1=C\c1ccc2c(cnn2Cc2ccc(C(F)(F)F)cc2C(F)(F)F)c1` [Example 215, 5-({1-[2,4-Bis(trifluoromethyl)benzyl]-1H-indazol-5-yl}methylidene)-2-[4-(cyclopropylcarbonyl)-3-(R)-(hydroxymethyl)piperazin-1-yl]-1,3-thiazol-4(5H)-one] in this work.
An EC50 of 0.015 µM was found for `COC(=O)N1CCN(C2=NC(=O)/C(=C/c3ccc4c(cnn4Cc4ccc(C(F)(F)F)cc4C(F)(F)F)c3)S2)C[C@@H]1CO` [Example 216, Methyl 4-[5-({1-[2,4-bis(trifluoromethyl)benzyl]-1H-indazol-5-yl}methylidene)-4-oxo-4,5-dihydro-1,3-thiazol-2-yl]-2-(R)-(hydroxymethyl)piperazine-1-carboxylate] in this work.
An EC50 of 0.027 µM was found for `N#Cc1nn(Cc2ccc(C(F)(F)F)cc2C(F)(F)F)c2ccc(/C=C3\SC(N4CCN[C@@H](CO)C4)=NC3=O)cc12` [Example 217, 1-[2,4-Bis(trifluoromethyl)benzyl]-5-({2-[3-(R)-(hydroxymethyl)piperazin-1-yl]-4-oxo-1,3-thiazol-5(4H)-ylidene}methyl)-1H-indazole-3-carbonitrile] in this work.
An EC50 of 0.036 µM was found for `N#Cc1nn(Cc2ccc(C(F)(F)F)cc2C(F)(F)F)c2ccc(/C=C3\SC(N4CCN[C@H](CO)C4)=NC3=O)cc12` [Example 218, 1-[2,4-Bis(trifluoromethyl)benzyl]-5-({2-[3-(S)-(hydroxymethyl)piperazin-1-yl]-4-oxo-1,3-thiazol-5(4H)-ylidene}methyl)-1H-indazole-3-carbonitrile] in this work.
An EC50 of 0.023 µM was found for `CN1CCN(C2=NC(=O)/C(=C/c3ccc4c(cnn4Cc4ccc(C(F)(F)F)cc4C(F)(F)F)c3)S2)CC1(C)C` [Example 219, 5-({1-[2,4-Bis(trifluoromethyl)benzyl]-1H-indazol-5-yl}methylidene)-2-(3,3,4-trimethylpiperazin-1-yl)-1,3-thiazol-4(5H)-one] in this work.
An EC50 of 0.0214 µM was found for `CC(C)(C)NC(=O)[C@@H]1CN(C2=NC(=O)/C(=C/c3ccc4c(cnn4Cc4ccc(C(F)(F)F)cc4C(F)(F)F)c3)S2)CCN1` [Example 220, 4-[5-({1-[2,4-Bis(trifluoromethyl)benzyl]-1H-indazol-5-yl}methylidene)-4-oxo-4,5-dihydro-1,3-thiazol-2-yl]-N-tert-butylpiperazine-2-(S)-carboxamide] in this work.
An EC50 of 0.007 µM was found for `CN1CCN(C2=NC(=O)/C(=C/c3ccc4c(cnn4Cc4ccc(Cl)cc4C(F)(F)F)c3)S2)CC1(C)C` [Example 221, 5-({1-[4-Chloro-2-(trifluoromethyl)benzyl]-1H-indazol-5-yl}methylidene)-2-(3,3,4-trimethylpiperazin-1-yl)-1,3-thiazol-4(5H)-one] in this work.
An EC50 of 0.02 µM was found for `CN1CCN(C2=NC(=O)/C(=C/c3ccc4c(c3)c(C#N)nn4Cc3ccc(Cl)cc3C(F)(F)F)S2)CC1(C)C` [Example 222, 1-[4-Chloro-2-(trifluoromethyl)benzyl]-5-{[4-oxo-2-(3,3,4-trimethylpiperazin-1-yl)-1,3-thiazol-5(4H)-ylidene]methyl}-1H-indazole-3-carbonitrile] in this work.
An EC50 of 0.07 µM was found for `N#Cc1nn(Cc2ccc(Cl)cc2C(F)(F)F)c2ccc(/C=C3\SC(N4CCN(CC5CC5)CC4)=NC3=O)cc12` [Example 224, 1-[4-Chloro-2-(trifluoromethyl)benzyl]-5-({2-[4-(cyclopropylmethyl)piperazin-1-yl]-4-oxo-1,3-thiazol-5(4H)-ylidene}methyl)-1H-indazole-3-carbonitrile] in this work.
An EC50 of 0.018 µM was found for `O=C1N=C(N2C[C@H](O)[C@@H](N3CCOCC3)C2)S/C1=C\c1ccc2c(cnn2Cc2ccc(C(F)(F)F)cc2C(F)(F)F)c1` [Example 225, (5Z)-5-({1-[2,4-Bis(trifluoromethyl)benzyl]-1H-indazol-5-yl}methylidene)-2-[(3S,4S)-3-hydroxy-4-morpholin-4-ylpyrrolidin-1-yl]-1,3-thiazol-4(5H)-one] in this work.
